What was measured:
Format in all cases: in vivo
[1] = tested on: Spodoptera littoralis (Egyptian Cotton Leaf Worm); test: Example B7: Spodoptera littoralis (Egyptian cotton leaf worm), sprayed cotton leaf discs, L1 larvae; details: foliar, 72 h, application rate of 200 ppm, 3 days after infestation, in comparison to untreated samples
Description: Example B7: Spodoptera littoralis (Egyptian Cotton Leaf Worm
Cotton leaf discs were placed onto agar in 24-well microtiter plates and sprayed with aqueous test solutions prepared from 10′000 ppm DMSO stock solutions. After drying the leaf discs were infested with five L1 larvae. The samples were assessed for mortality, anti-feeding effect, and growth inhibition in comparison to untreated samples 3 days after infestation. Control of Spodoptera littoralis by a test sample is given when at least one of the categories mortality, anti-feedant effect, and growth inhibition is higher than the untreated sample.

[2] = tested on: Plutella xylostella (Diamond Back Moth); test: Example B4: Plutella xylostella (diamond back moth), treated artificial diet, eggs; details: 192 h, application rate of 200 ppm, 8 days after infestation, in comparison to untreated samples, read-out: effect in at least one of the two categories (mortality or growth inhibition)
Description: Example B4: Plutella xylostella (Diamond Back Moth
24-well microtiter plates with artificial diet were treated with aqueous test solutions prepared from 10′000 ppm DMSO stock solutions by pipetting. After drying, Plutella eggs were pipetted through a plastic stencil onto a gel blotting paper and the plate was closed with it. The samples were assessed for mortality and growth inhibition in comparison to untreated samples 8 days after infestation.

[3] = tested on: Diabrotica balteata (Corn Root Worm); test: Example B1: Diabrotica balteata (corn root worm), sprayed maize sprouts on agar, L2 larvae; details: 96 h, application rate of 200 ppm, 4 days after infestation, in comparison to untreated samples, read-out: effect in at least one of the two categories (mortality or growth inhibition)
Description: Example B1: Diabrotica balteata (Corn Root Worm
Maize sprouts placed onto an agar layer in 24-well microtiter plates were treated with aqueous test solutions prepared from 10′000 ppm DMSO stock solutions by spraying. After drying, the plates were infested with L2 larvae (6 to 10 per well). The samples were assessed for mortality and growth inhibition in comparison to untreated samples 4 days after infestation.

[4] = tested on: Euschistus heros (Neotropical Brown Stink Bug); test: Example B2: Euschistus heros (neotropical brown stink bug), sprayed soybean leaves, N2 nymphs; details: 120 h, application rate of 200 ppm, 5 days after infestation, in comparison to untreated samples, read-out: effect in at least one of the two categories (mortality or growth inhibition)
Description: Example B2: Euschistus heros (Neotropical Brown Stink Bug
Soybean leaves on agar in 24-well microtiter plates were sprayed with aqueous test solutions prepared from 10′000 ppm DMSO stock solutions. After drying the leaves were infested with N2 nymphs. The samples were assessed for mortality and growth inhibition in comparison to untreated samples 5 days after infestation.

[5] = tested on: Myzus persicae (Green Peach Aphid); test: Example B5: Myzus persicae (green peach aphid), feeding/contact activity, sprayed sunflower leaf discs; details: foliar, 144 h, application rate of 200 ppm, aphid population of mixed ages, 6 days after infestation
Description: Example B5: Myzus persicae (Green Peach Aphid). Feeding/Contact Activity
Sunflower leaf discs were placed onto agar in a 24-well microtiter plate and sprayed with aqueous test solutions prepared from 10′000 ppm DMSO stock solutions. After drying, the leaf discs were infested with an aphid population of mixed ages. The samples were assessed for mortality 6 days after infestation.

CCS(=O)(=O)c1cc(-c2ncc(Cl)cn2)cnc1-c1nc2cc(S(=N)(=O)C(F)(F)F)ccc2o1 (stereo not shown) [P42, [2-[5-(5-chloropyrimidin-2-yl)-3-ethylsulfonyl-2-pyridyl]-1,3-benzoxazol-5-yl]-imino-oxo-(trifluoromethyl)-λ^6-sulfane]
≥ 80%: percent control (mortality, anti-feeding effect or growth inhibition) at 200 ppm [1] | percent effect (mortality or growth inhibition) at 200 ppm [2] | percent effect (mortality or growth inhibition) at 200 ppm [3] | effect (mortality or growth inhibition) at 200 ppm [4]

CCN=S(=O)(c1ccc2c(c1)nc(-c1nc(-n3cncn3)ccc1S(=O)(=O)CC)n2C)C(F)(F)F (stereo not shown) [P45, ethylimino-[2-[3-ethylsulfonyl-6-(1,2,4-triazol-1-yl)-2-pyridyl]-1-methyl-benzimidazol-5-yl]-oxo-(trifluoromethyl)-λ^6-sulfane]
≥ 80%: percent control (mortality, anti-feeding effect or growth inhibition) at 200 ppm [1] | percent effect (mortality or growth inhibition) at 200 ppm [2] | percent effect (mortality or growth inhibition) at 200 ppm [3] | mortality at 200 ppm [5]

CCS(=O)(=O)c1cc(C2(C#N)CC2)cnc1-c1nc2cc(S(=O)(=NC3CC3)C(F)(F)F)ccc2n1C (stereo not drawn) [P31, 1-[6-[5-[N-cyclopropyl-S-(trifluoromethyl)sulfonimidoyl]-1-methyl-benzimidazol-2-yl]-5-ethylsulfonyl-3-pyridyl]cyclopropanecarbonitrile]
≥ 80%: percent effect (mortality or growth inhibition) at 200 ppm [2] | percent effect (mortality or growth inhibition) at 200 ppm [3] | effect (mortality or growth inhibition) at 200 ppm [4]

CCS(=O)(=O)c1ccc(-n2cncn2)nc1-c1nc2cc(S(=N)(=O)C(F)(F)F)ccc2n1C (stereo not shown) [P44, [2-[3-ethylsulfonyl-6-(1,2,4-triazol-1-yl)-2-pyridyl]-1-methyl-benzimidazol-5-yl]-imino-oxo-(trifluoromethyl)-λ^6-sulfane]
≥ 80%: percent control (mortality, anti-feeding effect or growth inhibition) at 200 ppm [1] | percent effect (mortality or growth inhibition) at 200 ppm [2] | percent effect (mortality or growth inhibition) at 200 ppm [3] | mortality at 200 ppm [5]

CCN=S(=O)(c1ccc2oc(-c3ncc(N(C)C(C)=O)cc3S(=O)(=O)CC)nc2c1)C(F)(F)F (stereo not drawn) [P3, N-[5-ethylsulfonyl-6-[5-[N-ethyl-S-(trifluoromethyl)sulfonimidoyl]-1,3-benzoxazol-2-yl]-3-pyridyl]-N-methyl-acetamide]
≥ 80%: percent control (mortality, anti-feeding effect or growth inhibition) at 200 ppm [1] | percent effect (mortality or growth inhibition) at 200 ppm [2] | percent effect (mortality or growth inhibition) at 200 ppm [3] | mortality at 200 ppm [5]

CCN=S(=O)(c1ccc2oc(-c3ncc(OCC(F)(F)F)cc3S(=O)(=O)CC)nc2c1)C(F)(F)F (stereo not shown) [P22, ethylimino-[2-[3-ethylsulfonyl-5-(2,2,2-trifluoroethoxy)-2-pyridyl]-1,3-benzoxazol-5-yl]-oxo-(trifluoromethyl)-λ^6-sulfane]
≥ 80%: percent control (mortality, anti-feeding effect or growth inhibition) at 200 ppm [1] | percent effect (mortality or growth inhibition) at 200 ppm [2] | percent effect (mortality or growth inhibition) at 200 ppm [3] | effect (mortality or growth inhibition) at 200 ppm [4]

CCN=S(=O)(c1ccc2oc(-c3ncc(Oc4ccccn4)cc3S(=O)(=O)CC)nc2c1)C(F)(F)F (stereo not shown) [P10, ethylimino-[2-[3-ethylsulfonyl-5-(2-pyridyloxy)-2-pyridyl]-1,3-benzoxazol-5-yl]-oxo-(trifluoromethyl)-λ^6-sulfane]
≥ 80%: percent control (mortality, anti-feeding effect or growth inhibition) at 200 ppm [1] | percent effect (mortality or growth inhibition) at 200 ppm [2] | percent effect (mortality or growth inhibition) at 200 ppm [3] | effect (mortality or growth inhibition) at 200 ppm [4]

CCS(=O)(=O)c1cc(C2(C#N)CC2)cnc1-c1nc2cc(S(=O)(=NC)C(F)(F)F)ccc2o1 (stereo not drawn) [P29, 1-[5-ethylsulfonyl-6-[5-[N-methyl-S-(trifluoromethyl)sulfonimidoyl]-1,3-benzoxazol-2-yl]-3-pyridyl]cyclopropanecarbonitrile]
≥ 80%: percent control (mortality, anti-feeding effect or growth inhibition) at 200 ppm [1] | percent effect (mortality or growth inhibition) at 200 ppm [2] | percent effect (mortality or growth inhibition) at 200 ppm [3] | effect (mortality or growth inhibition) at 200 ppm [4]

CCS(=O)(=O)c1cccnc1-c1nc2cc(S(=N)(=O)C(F)(F)F)ccc2o1 (stereo not shown) [P16, [2-(3-ethylsulfonyl-2-pyridyl)-1,3-benzoxazol-5-yl]-imino-oxo-(trifluoromethyl)-λ^6-sulfane]
≥ 80%: percent control (mortality, anti-feeding effect or growth inhibition) at 200 ppm [1] | percent effect (mortality or growth inhibition) at 200 ppm [2] | percent effect (mortality or growth inhibition) at 200 ppm [3] | effect (mortality or growth inhibition) at 200 ppm [4]

CCN=S(=O)(c1ccc2oc(-c3ncc(C4(C#N)CC4)cc3S(=O)(=O)CC)nc2c1)C(F)(F)F (stereo not drawn) [P8, 1-[5-ethylsulfonyl-6-[5-[N-ethyl-S-(trifluoromethyl)sulfonimidoyl]-1,3-benzoxazol-2-yl]-3-pyridyl]cyclopropanecarbonitrile]
≥ 80%: percent control (mortality, anti-feeding effect or growth inhibition) at 200 ppm [1] | percent effect (mortality or growth inhibition) at 200 ppm [2] | percent effect (mortality or growth inhibition) at 200 ppm [3] | effect (mortality or growth inhibition) at 200 ppm [4]

CCS(=O)(=O)c1cc(-c2ncccn2)cnc1-c1nc2cc(S(=N)(=O)C(F)(F)F)ccc2o1 (stereo not shown) [P36, [2-(3-ethylsulfonyl-5-pyrimidin-2-yl-2-pyridyl)-1,3-benzoxazol-5-yl]-imino-oxo-(trifluoromethyl)-λ^6-sulfane]
≥ 80%: percent control (mortality, anti-feeding effect or growth inhibition) at 200 ppm [1] | percent effect (mortality or growth inhibition) at 200 ppm [2] | percent effect (mortality or growth inhibition) at 200 ppm [3] | effect (mortality or growth inhibition) at 200 ppm [4]

CCS(=O)(=O)c1cc(OCC(F)(F)F)cnc1-c1nc2cc(S(=O)(=NC(C)=O)C(F)(F)F)ccc2o1 (stereo not shown) [P24, N-[[2-[3-ethylsulfonyl-5-(2,2,2-trifluoroethoxy)-2-pyridyl]-1,3-benzoxazol-5-yl]-oxo-(trifluoromethyl)-λ^6-sulfanylidene]acetamide]
≥ 80%: percent control (mortality, anti-feeding effect or growth inhibition) at 200 ppm [1] | percent effect (mortality or growth inhibition) at 200 ppm [2] | percent effect (mortality or growth inhibition) at 200 ppm [3] | effect (mortality or growth inhibition) at 200 ppm [4]

CCN=S(=O)(c1ccc2oc(-c3ncc(-c4ncccn4)cc3S(=O)(=O)CC)nc2c1)C(F)(F)F (stereo not shown) [P35, ethylimino-[2-(3-ethylsulfonyl-5-pyrimidin-2-yl-2-pyridyl)-1,3-benzoxazol-5-yl]-oxo-(trifluoromethyl)-λ^6-sulfane]
≥ 80%: percent control (mortality, anti-feeding effect or growth inhibition) at 200 ppm [1] | percent effect (mortality or growth inhibition) at 200 ppm [2] | percent effect (mortality or growth inhibition) at 200 ppm [3] | effect (mortality or growth inhibition) at 200 ppm [4]

CCS(=O)(=O)c1ccc(-n2cnc(C(F)(F)F)n2)nc1-c1nc2cc(S(=N)(=O)C(F)(F)F)ccc2n1C (stereo not shown) [P48, [2-[3-ethylsulfonyl-6-[3-(trifluoromethyl)-1,2,4-triazol-1-yl]-2-pyridyl]-1-methyl-benzimidazol-5-yl]-imino-oxo-(trifluoromethyl)-λ^6-sulfane]
≥ 80%: percent control (mortality, anti-feeding effect or growth inhibition) at 200 ppm [1] | percent effect (mortality or growth inhibition) at 200 ppm [2] | percent effect (mortality or growth inhibition) at 200 ppm [3]

CCS(=O)(=O)c1cc(Oc2ccccn2)cnc1-c1nc2cc(S(=O)(=NC(C)=O)C(F)(F)F)ccc2o1 (stereo not shown) [P25, N-[[2-[3-ethylsulfonyl-5-(2-pyridyloxy)-2-pyridyl]-1,3-benzoxazol-5-yl]-oxo-(trifluoromethyl)-λ^6-sulfanylidene]acetamide]
≥ 80%: percent control (mortality, anti-feeding effect or growth inhibition) at 200 ppm [1] | percent effect (mortality or growth inhibition) at 200 ppm [2] | percent effect (mortality or growth inhibition) at 200 ppm [3] | effect (mortality or growth inhibition) at 200 ppm [4]

From US12503461B2, “Pesticidally active heterocyclic derivatives with sulfur and sulfoximine containing substituents” (SYNGENTA CROP PROTECTION AG, priority 2019, dated 2025)
